Reference: ChEMBL document CHEMBL5338739, “Discovery of Dual Lysine Methyltransferase G9a and EZH2 Inhibitors with In Vivo Efficacy against Malignant Rhabdoid Tumor” (J Med Chem, 2023)
Activity calls are given as the source filed them. The rule behind the calls is not given here.

What was measured:
[1] = target: T1, Histone-lysine N-methyltransferase EHMT2 (Homo sapiens) (UniProt Q96KQ7); assay: Inhibition of human recombinant EHMT2 G9a using SAM as substrate at 10 uM by time-resolved fluorescence assay relative to control
T1 sequence (whole entry): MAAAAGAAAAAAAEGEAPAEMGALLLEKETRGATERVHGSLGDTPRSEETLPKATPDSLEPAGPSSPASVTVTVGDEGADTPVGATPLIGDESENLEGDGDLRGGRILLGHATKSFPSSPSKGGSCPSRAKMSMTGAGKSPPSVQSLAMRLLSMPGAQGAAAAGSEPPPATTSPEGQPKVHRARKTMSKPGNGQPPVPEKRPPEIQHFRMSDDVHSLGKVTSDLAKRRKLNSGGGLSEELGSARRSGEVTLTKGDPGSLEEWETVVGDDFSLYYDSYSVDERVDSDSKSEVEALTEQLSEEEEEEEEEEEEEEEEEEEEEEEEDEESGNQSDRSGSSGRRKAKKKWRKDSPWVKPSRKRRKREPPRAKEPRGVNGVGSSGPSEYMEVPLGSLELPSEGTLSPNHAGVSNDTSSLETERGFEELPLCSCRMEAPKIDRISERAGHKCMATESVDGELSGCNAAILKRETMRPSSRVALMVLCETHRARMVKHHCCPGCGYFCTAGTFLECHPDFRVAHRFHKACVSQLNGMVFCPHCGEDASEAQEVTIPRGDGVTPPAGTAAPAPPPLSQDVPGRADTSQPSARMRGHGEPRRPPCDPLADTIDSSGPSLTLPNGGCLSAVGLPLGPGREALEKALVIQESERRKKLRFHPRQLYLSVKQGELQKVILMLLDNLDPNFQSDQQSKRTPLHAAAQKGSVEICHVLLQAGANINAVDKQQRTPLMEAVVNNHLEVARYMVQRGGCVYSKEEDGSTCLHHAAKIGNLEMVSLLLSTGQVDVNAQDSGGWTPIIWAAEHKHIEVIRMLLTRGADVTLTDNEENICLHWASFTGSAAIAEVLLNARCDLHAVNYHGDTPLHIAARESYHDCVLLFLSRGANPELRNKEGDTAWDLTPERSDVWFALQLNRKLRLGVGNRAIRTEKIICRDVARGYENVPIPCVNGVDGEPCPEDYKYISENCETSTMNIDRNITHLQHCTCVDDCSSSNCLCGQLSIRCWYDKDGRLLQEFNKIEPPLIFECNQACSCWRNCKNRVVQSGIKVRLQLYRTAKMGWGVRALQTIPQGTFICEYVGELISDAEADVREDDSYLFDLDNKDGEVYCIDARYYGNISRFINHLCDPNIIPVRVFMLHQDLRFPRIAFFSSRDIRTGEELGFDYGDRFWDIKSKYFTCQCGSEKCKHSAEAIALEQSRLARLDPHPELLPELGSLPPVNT

[2] = target: T1, Histone-lysine N-methyltransferase EHMT2 (Homo sapiens); assay: Binding affinity to recombinant EHMT2 G9a in human RD cells assessed as decrease in […] incubated for 1 hr by DARTS analysis; type: cell-based; conditions: dose 5-20 µM
Mus musculus [3] = assay: Downregulation of H3K27me3 expression in tumor tissue of BALB/c nude mouse xenografted with human RD cells at 20 mg/kg, ip administered for 5 consecutive days followed by 2 rest days for 3 weeks by Western blotting analysis; type: functional, organism-based
[4] = target: T2, N-lysine methyltransferase KMT5A (Homo sapiens) (UniProt Q9NQR1); assay: Inhibition of SETD8 (unknown origin) using SAM as substrate at 10 uM by time-resolved fluorescence assay relative to control
T2 sequence (whole entry): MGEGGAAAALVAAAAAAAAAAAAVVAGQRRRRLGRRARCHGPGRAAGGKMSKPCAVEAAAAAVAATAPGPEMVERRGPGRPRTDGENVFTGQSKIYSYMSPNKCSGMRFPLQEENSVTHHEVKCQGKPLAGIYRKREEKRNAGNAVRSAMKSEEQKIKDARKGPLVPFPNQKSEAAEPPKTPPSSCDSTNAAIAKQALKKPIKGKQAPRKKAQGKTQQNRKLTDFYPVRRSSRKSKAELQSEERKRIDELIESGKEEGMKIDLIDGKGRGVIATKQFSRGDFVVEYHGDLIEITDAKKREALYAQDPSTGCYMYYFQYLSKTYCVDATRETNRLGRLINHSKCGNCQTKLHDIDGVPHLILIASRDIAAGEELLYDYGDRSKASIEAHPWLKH

[5] = Toxicity in BALB/c nude mouse xenografted with human RD cells assessed as effect on lung viscera index at 10 to 20 mg/kg, ip administered for 5 consecutive days followed by 2 rest days for 3 weeks; type: organism-based; conditions: in vivo, 504 h, dose 10-20 mg/kg
[6] = target: T3, Histone-lysine N-methyltransferase EHMT2 (Homo sapiens, UniProt Q96KQ7); assay: Inhibition of human recombinant EHMT2 G9a using SAM as substrate incubated for 1 hr by microplate luminescence based HMT assay
T3 sequence (Q96KQ7 whole entry): T1 sequence (whole entry)

RD [7] = assay: Antitumor activity against human RD cells xenografted in BALB/c nude mouse assessed as tumor growth inhibition at 10 to 20 mg/kg, ip administered for 5 consecutive days followed by 2 rest days for 3 weeks; type: functional; conditions: dose 10-20 mg/kg
[8] = Half life in Sprague-Dawley rat at 10 mg/kg, iv administered for 12 hrs by HPLC analysis; type: ADME, organism-based; conditions: in vivo
[9] = Apparent volume of distribution in Sprague-Dawley rat at 10 mg/kg, iv administered for 12 hrs by HPLC analysis; type: ADME, organism-based; conditions: in vivo, read-out: Vc
[10] = Apparent volume of distribution in Sprague-Dawley rat at 30 mg/kg, po administered for 24 hrs by HPLC analysis; type: ADME, organism-based; conditions: in vivo
[11] = AUC (0 to 24 hrs) in Sprague-Dawley rat at 10 mg/kg, iv administered for 12 hrs by HPLC analysis; type: ADME, organism-based; set-up: dose 10 mg/kg, time 12 hrs, route iv; conditions: in vivo
SW982 = assay: Antiproliferative activity against human SW982 cells assessed as reduction in clone formation rate at 5 uM for 1 to 2 weeks with fresh medium replacement for every 2 to 3 days by crystal violet staining based microscopic analysis; type: functional, cell-based; conditions: time 1-2 weeks
RD [12] = assay: Downregulation of H3K79me1 expression in human RD cells at 5 uM incubated for 6 days by immunoblotting analysis; type: functional, cell-based; conditions: time 6.0 day
[13] = AUC (0 to infinity) in Sprague-Dawley rat at 10 mg/kg, iv administered for 12 hrs by HPLC analysis; type: ADME, organism-based; set-up: time 12 hrs, dose 10 mg/kg, route iv; conditions: in vivo
[14] = Toxicity in BALB/c nude mouse xenografted with human RD cells assessed as effect on spleen viscera index at 10 to 20 mg/kg, ip administered for 5 consecutive days followed by 2 rest days for 3 weeks; type: organism-based; conditions: in vivo, 504 h, dose 10-20 mg/kg
[15] = target: Histone-lysine N-methyltransferase EZH2 (Homo sapiens, UniProt Q15910); assay: Inhibition of human EZH2 using SAM as substrate incubated for 1 hr by microplate luminescence based HMT assay
Histone-lysine N-methyltransferase EZH2, sequence (Q15910 whole entry): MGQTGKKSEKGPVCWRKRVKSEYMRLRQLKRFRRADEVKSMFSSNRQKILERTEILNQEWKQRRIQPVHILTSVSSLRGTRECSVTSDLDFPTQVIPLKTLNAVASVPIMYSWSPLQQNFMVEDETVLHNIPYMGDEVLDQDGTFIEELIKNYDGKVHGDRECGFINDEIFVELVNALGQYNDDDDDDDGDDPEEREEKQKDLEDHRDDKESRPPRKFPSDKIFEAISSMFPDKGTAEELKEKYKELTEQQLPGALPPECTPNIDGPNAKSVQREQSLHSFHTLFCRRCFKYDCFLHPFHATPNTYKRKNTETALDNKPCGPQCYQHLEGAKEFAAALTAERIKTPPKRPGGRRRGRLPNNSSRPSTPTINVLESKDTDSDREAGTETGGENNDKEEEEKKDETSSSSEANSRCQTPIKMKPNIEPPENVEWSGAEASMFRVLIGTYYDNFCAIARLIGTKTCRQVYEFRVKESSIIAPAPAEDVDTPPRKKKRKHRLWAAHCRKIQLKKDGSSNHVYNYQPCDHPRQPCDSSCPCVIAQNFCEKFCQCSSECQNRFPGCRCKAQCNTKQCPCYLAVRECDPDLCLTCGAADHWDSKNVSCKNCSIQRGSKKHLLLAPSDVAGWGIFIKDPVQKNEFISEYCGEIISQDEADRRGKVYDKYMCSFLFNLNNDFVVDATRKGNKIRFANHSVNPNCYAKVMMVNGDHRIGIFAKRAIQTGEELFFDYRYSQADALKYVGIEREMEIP

[16] = AUC (0 to infinity) in Sprague-Dawley rat at 30 mg/kg, po administered for 24 hrs by HPLC analysis; type: ADME, organism-based; set-up: time 24 hrs, dose 30 mg/kg, route po; conditions: in vivo
Mus musculus [17] = assay: Downregulation of H3K9me2 expression in tumor tissue of BALB/c nude mouse xenografted with human RD cells at 20 mg/kg, ip administered for 5 consecutive days followed by 2 rest days for 3 weeks by Western blotting analysis; type: functional, organism-based

Question: What does the source list for `COc1cc2c(NCc3c(C)cc(C)[nH]c3=O)nc(N3CCC(F)(F)CC3)nc2cc1OCCCN1CCCC1`?
Answer: inhibition [1]: 99.1%; Activity [2]: Dose-Dependent Effect; Activity (Mus musculus [3]): Active; inhibition [4]: 11.2%; Activity [5]: Non-Toxic; IC50 [6]: 2.9 nM; TGI (RD [7]): 86.6%; half-life [8]: 3.47 h; Vd [9]: 4.54 L/kg; Vc [10]: 17.518 L/kg; AUC(0-t) at 12 h [11]: 1940 ng·h/mL; Activity (SW982): Active; Activity (RD [12]): inactive; AUC [13]: 2476.02 ng·h/mL; Activity [14]: Non-Toxic; IC50 [15]: 4.35 nM; AUC(0-inf) [16]: 11400 ng·h/mL; Activity (Mus musculus [17]): Active
